In patent US6626844B1, “Method and composition for inhibition of nitric oxide production in the oral cavity” (Aerocrine AB, priority 1998, dated 2003):

Key:
exhaled NO output = test: Mouthwash trials: NO output in exhaled air; format: in vivo, humans; settings: for effect on NO output: 30 s mouthwash with 25 ml
Description: Experimental protocol: Exhaled NO was measured at an exhalation flow rate of 100 ml/s and the NO output was calculated. Measurements were repeated 3 times at each time point and the median value was used. After baseline measurements, the test subjects (n=3) were asked to rinse their mouth with 25 ml of different solutions during 30 s whereafter the solution was spat out All solutions were made up in distilled water. Exhaled NO measurements were repeated directly after, and 5, 15 and 30 min after the mouthwash procedure. Results are given as mean relative changes in NO output compared to baseline measurements.

NO in exhaled air [1] = test: Mouthwashes and NO in exhaled air; format: in vivo, humans
From the text: (§1) Ten healthy non-smoking subjects, age 23-43, were included in the study. The NO measurements were made with a chemiluminescense technique according to the recommendations recently described in the ERS Task Force Report (Kharitonov et al., 1997). The values of NO concentration were then registered in a computer software program together with the values of flow and pressure, measured with a pneunotachygraf, and calculations of these parameters were presented on a screen.
The following describes briefly the “single-breath” method for orally exhaled air. Compressed NO free air was continuously flowing into a non-diffusing gas collection bag, 100 l capacity (Hans Rudolph Inc.), at a rate of 2-3 l/min. The bag was connected via a tube to a Y-piece with a one-way valve, which in turn was adapted to a mouthpiece. Before the measurements the subjects inhaled NO free air through the mouthpiece and were asked to hold their breath for 10 s while they put their tongue into the mouthpiece's opening, in order to prevent NO from diffusing out. Then the subjects exhaled through the mouthpiece at a flow rate of about 0.15 l/s against a resistance of 50 cmH2O/l/s (Hans Rudolph Inc.), giving rise to an oral pressure of 8-10 cmH2O, for a period of 20 s. The exhaled air went out through the other one-way valve in the Y-piece leading on to a linear pneumotachymeter (Hans Rudolph Inc.), where the values of flow and pressure were registered and transformed into digital signals recorded by a computer software program (Medical Breath Analyser™ from Aerocrine AB, Sweden). The recordings were instantly visualized on a computer screen, which enabled the subjects to maintain a certain flow (i.e. 0.15 l/s), adjusting the exhalation to the flow curve. A fraction of the exhaled air was aspirated into the NO analyzer (Eco Physics Inc., Model CLD 700 AL) at a flow rate of approximately 0.5 l/min, through a 110-cm narrow-bore and Teflon®-coated tube connected to the mouthpiece. The detected NO levels were passed on to the computer and integrated with the figures for flow and pressure for calculation of NO release rate (pmol/s) and NO amount (pmol). NO release was calculated by the formula: NO-conc×Q=pmol/s×l/s=pmol/s. The conversion of NO-conc in ppb to a molecular unit goes via the fact that the volume of 1 mol of NO takes up 24.445 liters at normal temperature and pressure. Given this 1 ppb NO equals 40.908 pM. At the flow of 0.15 l/s and e.g. a NO-conc of 10 ppb the NO release equals 67 pmol/s. The use of NO-release, instead of NO-concentration as a registration unit, has the advantage of taking the flow rate into account, whereas in the use of NO-concentration the exhalation flow is not taken into consideration. In addition to the curves for flow and pressure two curves for NO concentration and NO release were plotted on the screen and calculated mean values were presented for the last 40% of the breath, representing the plateau phase. NO amount was also presented for the first 40%, representing the area under curve for the peak.
In order to further manipulate with the conditions in the oral cavity and perhaps influence the formation of NO from salivary nitrite different mouthwashes were introduced in the study. On a separate day, from that of the nitrate load, the ten subjects volunteered to have their NO in exhaled air measured after rinsing their mouth with distilled water, sodium bicarbonate-, ascorbic acid- and, nitrite solutions in named order. Further, a mouthwash with Chlorhexidine acetate 0.2% was included in the study.
In the first series of mouthwashes 5 baseline measurements with a breathhold were performed to obtain a reference value. In fact, all measurements in this part of the experiment were done with a breathhold, for the reasons described above. […]

[2] = tested on: NO synthesis in the oral cavity; settings: prior treatment with mouthwash, healthy volunteers; cited from earlier work
NO in exhaled air [3] = test: Mouthwash after nitrate loading, NO in exhaled air; format: in vivo, humans
Description: The experiment was terminated with a mouthwash of sodium bicarbonate after 180 min with a following single-breath measurements. This to examine whether the mouthwash's possible reduction of the NO formation would be enhanced at a stage when one would expect high levels of NO. For mouthwash procedure see below.
In addition to the mouthwash with sodium bicarbonate after […], the effects of chlorhexidine was studied at a stage when one could expect larger amounts of nitrite in the saliva. This was also done in a separate experiment, on a separate day, not to interfere with the results of the original nitrate loading study. Five single-breaths with a breathhold were carried out to obtain a reliable baseline. Thereafter a load of 400 mg potassium nitrate was ingested, as described above. However, to facilitate this experiment for the subjects there was no demand for fasting. Five additional single-breaths were performed 90 min later—to get representative mean values of NO after nitrate ingestion. The subjects then rinsed their mouths with 2.5 cl chlorhexidine acetate 0.2% for 30 s and performed a NO measurement immediately afterwards. The single-breath procedure was also repeated 2, 5, 10, 20 and 30 min after the mouthwash.

NO formation from saliva = tested on: NO formation from saliva
Description: On another occasion the subjects were asked to produce 10 ml of saliva, without time restriction, by again chewing on a piece of Teflon®-plastic. Half of this, i.e. 5 ml, was put in a 50 ml plastic syringe with an addition of 0.5 ml distilled water and closed with a three-way stopcock after filling it up with 50 ml of room air. The remaining 5 ml were mixed with 0.5 ml 20 mM nitrite solution (resulting in a salivary nitrite concentration of a […]) and put in another syringe filled with 50 ml of room air. The two syringes were put in a warming cupboard with an approximate temperature of 40° C. for 15 min. The air head space from both syringes was then collected in two separate empty 50 ml syringes and it's NO concentration was determined by the NO chemiluminescence analyser.

nasal NO = test: Nasal NO after nitrate loading; format: in vivo, humans; settings: 5-180 min after nitrate loading
From the text: To look into nasal NO levels a somewhat new approach taking advantage of the set-up for measurements in exhaled air was used. A “nose-olive”, tried out individually for a tight fitting to the subject's nostrils, was attached to the Teflon®-coated tube leading in to the NO-analyzer. The olive was then placed in one of the nostrils letting the NO analyzer aspirate air from the nasal cavity. Even though the subjects kept breathing through their mouth the NO concentrations oscillated with every breath, pointing to a leakage of NO from the nose to the oral cavity. The subjects were asked to take a deep breath and exhale through the mouthpiece against the same resistance as above, while the olive still was sampling from the nose. The oscillations of the NO values then ceased and the concentrations increased to a stable plateau, visualized on the computer screen. The time for exhalation was set to 20 s. which was well sufficient to reach a plateau. A mean value of the NO concentration during the last 40% of the exhalation, i.e. 8 s. was presented by the computer program and included in the protocol. […]
An amount of 400 mg potassium nitrate was dissolved in a cup of distilled water and then swallowed down. […] NO in exhaled air was measured first without and then with a breathhold, as mentioned above.

NO in exhaled air [4] = test: Nitrate loading: NO in orally exhaled air, single-breath chemiluminescence; format: in vivo, humans
From the text: as §1
The following describes briefly the “single-breath” method for orally exhaled air. Compressed NO free air was continuously flowing into a non-diffusing gas collection bag, 100 l capacity (Hans Rudolph Inc.), at a rate of 2-3 l/min. The bag was connected via a tube to a Y-piece with a one-way valve, which in turn was adapted to a mouthpiece. Before the measurements the subjects inhaled NO free air through the mouthpiece and were asked to hold their breath for 10 s while they put their tongue into the mouthpiece's opening, in order to prevent NO from diffusing out. Then the subjects exhaled through the mouthpiece at a flow rate of about 0.15 l/s against a resistance of 50 cmH2O/l/s (Hans Rudolph Inc.), giving rise to an oral pressure of 8-10 cmH2O, for a period of 20 s. The exhaled air went out through the other one-way valve in the Y-piece leading on to a linear pneumotachymeter (Hans Rudolph Inc.), where the values of flow and pressure were registered and transformed into digital signals recorded by a computer software program (Medical Breath Analyser™ from Aerocrine AB, Sweden). The recordings were instantly visualized on a computer screen, which enabled the subjects to maintain a certain flow (i.e. 0.15 l/s), adjusting the exhalation to the flow curve. A fraction of the exhaled air was aspirated into the NO analyzer (Eco Physics Inc., Model CLD 700 AL) at a flow rate of approximately 0.5 l/min, through a 110-cm narrow-bore and Teflon®-coated tube connected to the mouthpiece. The detected NO levels were passed on to the computer and integrated with the figures for flow and pressure for calculation of NO release rate (pmol/s) and NO amount (pmol). NO release was calculated by the formula: NO-conc×Q=pmol/s×l/s=pmol/s. The conversion of NO-conc in ppb to a molecular unit goes via the fact that the volume of 1 mol of NO takes up 24.445 liters at normal temperature and pressure. Given this 1 ppb NO equals 40.908 pM. At the flow of 0.15 l/s and e.g. a NO-conc of 10 ppb the NO release equals 67 pmol/s. The use of NO-release, instead of NO-concentration as a registration unit, has the advantage of taking the flow rate into account, whereas in the use of NO-concentration the exhalation flow is not taken into consideration. In addition to the curves for flow and pressure two curves for NO concentration and NO release were plotted on the screen and calculated mean values were presented for the last 40% of the breath, representing the plateau phase. NO amount was also presented for the first 40%, representing the area under curve for the peak. […]
Changes in NO levels were analysed by using non-parametric ANOVA for paired and repeated measures with subsequent Dunn's post-test as offered by InStat from GraphPad Software. Nitrate and nitrite concentrations in the saliva were analysed by the non-parametric method of […] for paired measurements, using the same software. […]

[5] = immediately after 30 s mouthwash (3 cl), with breathhold, baseline 41.1±3.3, n=10
[6] = immediately after 30 s mouthwash, baseline 497.6±52.7
[7] = 0 min after 30 s mouthwash with 25 ml, n=3
[8] = 120 min after nitrate ingestion, after breathhold

OO [1% H2O2, hydrogen peroxide]
effect on NO output (exhaled NO output): increased NO output

O=S(=O)([O-])[O-].[Fe+2] [100 mg FeSO4]
effect on NO output (exhaled NO output): increased NO output

O=C1O[C@H]([C@@H](O)CO)C(O)=C1O [ascorbic acid]
plateau NO release (NO in exhaled air [1]; [5]): 155.0 ± 27.6 pmol/s
peak level of NO (NO in exhaled air [1]; [6]): 2482.5±601.9 ppb
increase of peak concentration (NO in exhaled air [1]; immediately after mouthwash): around 400%
increase of plateau level compared to baseline (NO in exhaled air [1]; immediately after mouthwash): ~300%
effect on NO production [2]: marked elevation in NO production

CC(=O)O.CC(=O)O.NC(=N\CCCCCC/N=C(N)/N=C(\N)Nc1ccc(Cl)cc1)/N=C(\N)Nc1ccc(Cl)cc1 [chlorhexidine acetate]
mean relative change in NO output compared to baseline (exhaled NO output; [7]): −14% at
mean relative change in NO output compared to baseline (exhaled NO output; 5 min after mouthwash): −11% at
mean relative change in NO output compared to baseline (exhaled NO output; 15 min after mouthwash): −5% at
mean relative change in NO output compared to baseline (exhaled NO output; 30 min after mouthwash): −10% at
NO release (NO in exhaled air [3]; immediately after 0.2% mouthwash (2.5 cl, 30 s) given 90 min after nitrate load, before mouthwash 60.8±6.4): 33.9 ± 4.3 pmol/s
immediate reduction of NO levels (NO in exhaled air [3]; mouthwash 90 min after nitrate load): ~50%
immediate decrease of NO compared to baseline (NO in exhaled air [1]; 0.2% mouthwash, control (fasting) situation): ~30%
NO release (NO in exhaled air [1]; immediately after 30 s mouthwash with 2.5 cl 0.2%, pH 8.0, separate day, baseline 33.9±2.9): 24.1 ± 3.5 pmol/s

O=N[O-].[K+] [nitrite solution, potassium nitrite]
increase of plateau NO release compared to baseline (NO in exhaled air [1]; 0.1 M nitrite solution): > 40 fold
peak level of NO (NO in exhaled air [1]; 60 s after 30 s mouthwash): 2812.1±622.1 ppb
plateau NO release (NO in exhaled air [1]; 60 s after 30 s mouthwash): 225.2 ± 44.0 pmol/s
plateau NO release (NO in exhaled air [1]; dose-response rinse, 1 mM nitrite solution, one single-breath after rinsing): 55.0 ± 8.7 pmol/s
plateau NO release (NO in exhaled air [1]; dose-response rinse, 0.1 M nitrite solution): 1791.8 ± 404.8 pmol/s
NO concentration in head space of incubated saliva (NO formation from saliva; 5 ml saliva + 0.5 ml 20 mM nitrite, about 40° C., 15 min, pure saliva 59.5±29.8): 396.4±138.2 ppb
increase of NO formation versus pure saliva (NO formation from saliva; nitrite added to saliva): more than 500%

O=[N+]([O-])[O-].[K+] [potassium nitrate]
changes in nasal NO production (nasal NO): no significant changes in NO production
NO release (NO in exhaled air [3]; 90 min after 400 mg potassium nitrate, not fasting, control 34.8±4.2): 60.8 ± 6.4 pmol/s
increase of NO release compared to control levels (NO in exhaled air [3]; 90 min after nitrate load): ~2 fold
NO release during the plateau (NO in exhaled air [4]; 120 min after ingestion of 400 mg potassium nitrate, without breathhold, baseline 31.2±3.0, mean±SEM n=10): 77.0 ± 15.2 pmol/s
increase of peak NO amount compared to baseline (NO in exhaled air [4]; [8]): 130%
peak level: total amount NO released during the first 40% of the exhalation (NO in exhaled air [4]; [8]): 819 ± 160.8 pmol
NO release during the plateau (NO in exhaled air [4]; 120 min after nitrate ingestion, with breathhold, baseline 31.9±4.5): 70.8 ± 11.6 pmol/s
increase of plateau NO release compared to baseline (NO in exhaled air [4]; 120 min after nitrate ingestion, without breathhold): ~150%

O=C([O-])O.[Na+] [sodium bicarbonate]
mean relative change in NO output compared to baseline (exhaled NO output; [7]): −7% at
mean relative change in NO output compared to baseline (exhaled NO output; 5 min after mouthwash): −5% at
mean relative change in NO output compared to baseline (exhaled NO output; 15 min after mouthwash): −8% at
mean relative change in NO output compared to baseline (exhaled NO output; 30 min after mouthwash): −8% at
reduction of plateau (NO in exhaled air [3]; mouthwash 180 min after nitrate load): more than 30%
plateau NO release (NO in exhaled air [3]; mouthwash 180 min after nitrate load, before mouthwash 52.7±4.8): 36.2 ± 4.2 pmol/s
plateau NO release (NO in exhaled air [1]; 120 s after 30 s mouthwash): 34.4 ± 3.6 pmol/s
plateau NO release (NO in exhaled air [1]; [5]): 31.3 ± 3.1 pmol/s
peak level of NO (NO in exhaled air [1]; [6]): 309.2±43.0 ppb

polyoxyethylene sorbitan monolaurate [1% Tween-20 ®]
mean relative change in NO output compared to baseline (exhaled NO output; [7]): −9% at
mean relative change in NO output compared to baseline (exhaled NO output; 5 min after mouthwash): −6% at
